Laboratory results reported in patent US10792301B2, “Therapeutic polysaccharide midi-GAGR and related materials and methods” (priority 2015, dated 2020).

Key:
[1] = tested on: pCREB in mouse cortical neurons (E17, DIV6); assay: Nuclear pCREB in midi-GAGR-treated neurons after signaling inhibitors; type: cell-based; conditions: inhibitor 6 h (SU5402 4 μM, staurosporine 3 nM, U0126 10 μM, LY294002 20 μM, KN-62 10 μM, PF-573228 1 μM), then 1 μM midi-GAGR 48 h
Description: (§1) To analyze the effect of polysaccharides on neurite outgrowth, primary mouse cortical neurons were treated with vehicle (H2O) or 1 μM of dextran, alginate, or midi-GAGR, 0.01 μM of HA-GAGR, or 0.1 μM of LA-GAGR for 2 days prior to immunocytochemistry using anti-α-tubulin antibody and secondary Alexa488nm antibody. An etched grid coverslip containing 200 numbered boxes was used to select neurons objectively for image acquisition and analysis. A total of 24 boxes were randomly selected per treatment group. All the neurons having total neurite length longer than 4 times of the diameter of neuron cell body were chosen for image analysis. The total length of the neurites of each neuron was measured using Metamorph and used to calculate average total neurite length. To examine the effect of polysaccharides on the phosphorylation (activation) of nuclear CREB, neurons were stained with anti-pCREB antibody (Abcam & Santa Cruz biotechnologies, 2nd antibody with Alexa568nm), anti-α-tubulin antibody (Sigma, 2nd antibody with Alexa488nm), and DAPI (Sigma) after two-day incubation with vehicle (H2O) or 1 μM of dextran, alginate, or midi-GAGR, 0.01 μM of HA-GAGR, or 0.1 μM of LA-GAGR. […] The images of neurons on coverslips were taken by confocal microscopy at the same gain (850), offset (˜0.01) and exposure time (2 sec). The intensity of the staining of nuclear pCREB was measured using Metamorph and used to calculate average intensity. In addition, the phosphorylation of CREB in the cytosols of mouse cortical neurons treated with polysaccharides were detected by immunoblotting. Primary mouse neurons were dissected from 16 mouse embryos (E17) and plated in the wells of 6-well plates (1×10^6 cells/well), differentiated for 6 days, and treated with polysaccharides for 48 h. Then, neurons were harvested and lysed in 1% Igepal CA-630 (Sigma)-containing PMEE buffer plus protease and phosphatase inhibitor cocktails (Sigma) for protein extraction. Extracted proteins were separated in 4-12% NuPAGE Bis-Tris protein gels (Life Technologies) and transferred to nitrocellulose membrane (GE Healthcare Life Science, Pittsburgh, Pa.) using a semidry blotter (Hoefer, Inc. San Francisco, Calif.). The protein bands on blots recognized by anti-pCREB (Santa Cruz Biotechnologies) and anti-CREB antibodies were detected on Amersham Hyperfilm™ ECL films (GE Healthcare Life Science) using SuperSignal® West Pico Chemiluminescent Substrate (Thermo Scientific).
Pharmacological agents were used to inhibit signaling molecules downstream of FGFR1 that mediate CREB phosphorylation. […] PF-573228 (PF, 1 μM) that inhibits FAK which sits at the bottleneck of the signaling pathway downstream of NCAM180 was also included to examine whether NCAM180 is involved in midi-GAGR-mediated CREB phosphorylation or not. […]

[2] = tested on: Rat cortical neurons (E17, DIV6); assay: LIVE/DEAD assay with FGFR1 inhibitor SU5402 and 4HNE; type: cell-based
Source text: The protective effect of polysaccharides on primary cortical neurons from 4HNE, H2O2, and Aβ42 peptide (Sigma) was examined using LIVE/DEAD® Viability/Cytotoxicity Assay Kit (Life Technologies). Female pregnant mice (BALB/C, E17, Charles River Laboratories International, Inc.) or female pregnant SD rats (E17, bred in house) were anesthetized and dissected to obtain 8-9 embryos per animal. Cortical neurons were isolated from embryonic brains and differentiated on poly-L-lysine-coated coverslips in B27/neurobasal medium. For drug treatment before free radical treatment, mouse cortical neurons (5 days in vitro [DIV5.]) were treated with vehicle (H2O), 1 μM of 5 kD dextran (Sigma), alginate (Sigma), midi-GAGR, 0.01 μM of high acyl gellan gum (HA-GAGR, CPKelco Co.), or 0.1 μM of LA-GAGR for 24 h and then treated with 10 μM 4HNE or 50 μM H2O2 for 24 h, or 2 μM A[…]42 peptide for 48 h prior to viability/cytotoxicity assay. For drug co-treatment with free radicals, rat cortical neurons (DIV5) were treated with 1 μM of dextran, alginate, or midi-GAGR, 0.01 μM of HA-GAGR, or 0.1 μM of LA-GAGR along with either 10 μM 4HNE (24 h) or 2 μM Aβ42 peptide (48 h). […]

[3] = tested on: pCREB in mouse cortical neurons; assay: Nuclear pCREB immunostaining in mouse cortical neurons (Example 4); type: cell-based; conditions: 48 h; 1 μM midi-GAGR, dextran, alginate; 0.1 μM LA-GAGR; 0.01 μM HA-GAGR
Description: (§2) To analyze the effect of polysaccharides on neurite outgrowth, primary mouse cortical neurons were treated with vehicle (H2O) or 1 μM of dextran, alginate, or midi-GAGR, 0.01 μM of HA-GAGR, or 0.1 μM of LA-GAGR for 2 days prior to immunocytochemistry using anti-α-tubulin antibody and secondary Alexa488nm antibody. An etched grid coverslip containing 200 numbered boxes was used to select neurons objectively for image acquisition and analysis. A total of 24 boxes were randomly selected per treatment group. All the neurons having total neurite length longer than 4 times of the diameter of neuron cell body were chosen for image analysis. The total length of the neurites of each neuron was measured using Metamorph and used to calculate average total neurite length. […] The intensity of the staining of nuclear pCREB was measured using Metamorph and used to calculate average intensity. In addition, the phosphorylation of CREB in the cytosols of mouse cortical neurons treated with polysaccharides were detected by immunoblotting. […] The protein bands on blots recognized by anti-pCREB (Santa Cruz Biotechnologies) and anti-CREB antibodies were detected on Amersham Hyperfilm™ ECL films (GE Healthcare Life Science) using SuperSignal® West Pico Chemiluminescent Substrate (Thermo Scientific). […]

[4] = tested on: pCREB in mouse cortical neurons; assay: pCREB immunoblotting of neuron cytosols; type: cell-based; conditions: 48 h; 1 μM midi-GAGR, dextran, alginate; 0.1 μM LA-GAGR; 0.01 μM HA-GAGR
Description: as §2

[5] = ABTS Antioxidant Assay Kit; type: biochemical; conditions: 10 μM polysaccharide
Description: The antioxidant capacity of midi-GAGR was measured using ABTS Antioxidant Assay Kit (Zenbio Co.). […] This was slightly stronger than antioxidant capacity of LA-GAGR (10 μM LA-GAGR=15.4 μM trolox) (Table 2).

[6] = tested on: primary mouse cortical neurons (E17, DIV4); assay: Neurite outgrowth in primary mouse cortical neurons; type: cell-based; conditions: 2 days; 1 μM midi-GAGR, dextran, alginate; 0.1 μM LA-GAGR; 0.01 μM HA-GAGR
Description: as §1, with “Then, neurons were harvested and lysed in 1% Igepal CA-630 (Sigma)-containing PMEE buffer plus protease and phosphatase inhibitor cocktails (Sigma) for protein extraction. Extracted proteins were separated in 4-12% NuPAGE Bis-Tris protein gels (Life Technologies) and transferred to nitrocellulose membrane (GE Healthcare Life Science, Pittsburgh, Pa.) using a semidry blotter (Hoefer, Inc. San Francisco, Calif.).” left out

[7] = tested on: Mouse cortical neurons (E17, DIV5); assay: LIVE/DEAD assay, pre-treated mouse cortical neurons with 4HNE, H2O2 or Aβ42; type: cell-based; conditions: pre-treatment 24 h (1 μM midi-GAGR, dextran, alginate; 0.1 μM LA-GAGR; 0.01 μM HA-GAGR); for neuron death after Aβ42 peptide: 2 μM Aβ42 48 h, vehicle about 30%; for neuron death after 4HNE: 10 μM 4HNE 24 h, vehicle ~26%; for neuron death after H2O2: 50 μM H2O2 24 h, vehicle ~25%
Source text: The protective effect of polysaccharides on primary cortical neurons from 4HNE, H2O2, and Aβ42 peptide (Sigma) was examined using LIVE/DEAD® Viability/Cytotoxicity Assay Kit (Life Technologies). Female pregnant mice (BALB/C, E17, Charles River Laboratories International, Inc.) or female pregnant SD rats (E17, bred in house) were anesthetized and dissected to obtain 8-9 embryos per animal. Cortical neurons were isolated from embryonic brains and differentiated on poly-L-lysine-coated coverslips in B27/neurobasal medium. For drug treatment before free radical treatment, mouse cortical neurons (5 days in vitro [DIV5.]) were treated with vehicle (H2O), 1 μM of 5 kD dextran (Sigma), alginate (Sigma), midi-GAGR, 0.01 μM of high acyl gellan gum (HA-GAGR, CPKelco Co.), or 0.1 μM of LA-GAGR for 24 h and then treated with 10 μM 4HNE or 50 μM H2O2 for 24 h, or 2 μM A[…]42 peptide for 48 h prior to viability/cytotoxicity assay. For drug co-treatment with free radicals, rat cortical neurons (DIV5) were treated with 1 μM of dextran, alginate, or midi-GAGR, 0.01 μM of HA-GAGR, or 0.1 μM of LA-GAGR along with either 10 μM 4HNE (24 h) or 2 μM Aβ42 peptide (48 h). To examine the extent to which midi-GAGR-mediated neuroprotection depends on FGFR1, rat cortical neurons (E17, DIV5) were pre-treated with 4 μM SU5402 (Sigma) for 6 h and treated with 10 μM 4HNE and either vehicle or 1 μM midi-GAGR for 24 h prior to cell viability/cytotoxicity assay. As controls, neurons were treated with SU5402, midi-GAGR, 4HNE, 4HNE plus midi-GAGR, or SU5402 plus midi-GAGR.
For cell viability/cytotoxicity measurement, neurons on glass coverslips were incubated in 1×PBS containing 2 μM calcein AM (live cells: green) and 4 μM ethidium homodimer-1 (dead cells: red) for 10 min at 37° C. Immediately thereafter, neurons were imaged by 10×objective using a fluorescence Olympus IX71 microscope (Olympus America Inc., Center Valley, Pa.) and, for the acquisition of high-quality images, using TCS SP5 multi-photon laser scanning confocal microscope.
Midi-GAGR attenuated neurite atrophy caused by free reactive radicals. It is now shown herein that midi-GAGR protect neurons from the death caused by free radical insults. The extent to which midi-GAGR protects the primary culture of rodent cortical neurons from 4HNE and H2O2 was determined. In addition to the radicals, amyloid β peptide (Aβ42) was also tested. Aβ42 peptide is a major causative factor that causes oxidative stress and neuron death. Mouse cortical neurons (E17, DIV5) were treated with 10 μM 4HNE (24 h), 50 μM H2O2 (24 h), or 2 μM Aβ42 peptide (48 h) after the treatment of the neurons with vehicle (H2O), midi-GAGR (1 μM), dextran (1 μM), alginate (1 μM), LA-GAGR (0.1 μM), or HA-GAGR (0.01 μM) for 24 h. The concentrations of 4HNE, H2O2, and Aβ42 peptide were chosen according to their patho-physiological concentrations. The concentrations of LA-GAGR and HA-GAGR were chosen because, within the same volume, the total numbers of sugar units in the polysaccharides at the concentrations are close to that of 1 μM midi-GAGR. The viability of neurons was assessed using LIVE/DEAD® Viability/Cytotoxicity Assay Kit in which membrane-permeant calcein AM is cleaved by esterase in live cells, thus yielding green fluorescence, and membrane-impermeant ethidium homodimer-1 stains the nucleic acids of plasma membrane-compromised cells with red fluorescence. The numbers of green (live) and red (dead) neurons in each condition were counted using Metamorph. Although the intensities of green fluorescent signals in neurons treated with either free radicals or Aβ42 peptide were weak, the neurons were included in the counting. About 8-9% of vehicle-treated neurons died during the process of live/dead cell assay (FIGS. 23A-23F, FIGS. 24A-24C).

[8] = tested on: Differentiated dopaminergic PC12 cells; assay: LIVE/DEAD viability of differentiated PC12 cells exposed to 6-OHDA; type: cell-based; conditions: 1 μM for 6 h, then 30 μM 6-OHDA for 24 h
Description: Differentiated dopaminergic PC12 cells and primary mouse embryonic cortical neurons (E17, DIV14) were treated with mock (H2O) or 1 μM of dextran, alginate, HA-GAGR or midi-GAGR for 6 h and insulated by oxidative stressors (30 μM 6-OHDA [PC12] and 10 μM amyloid β peptide [cortical neurons]) for 24 h.

[9] = tested on: phosphorylated CREB in differentiated PC12 cells; assay: Nuclear p-CREB immunostaining in PC12 cells; type: cell-based; conditions: 1 μM, 24 h
Description: (§3) Differentiated PC12 cells and mouse embryonic cortical neurons (E17, DIV14) were treated with mock, dextran, alginate, HA-GAGR or midi-GAGR (1 μM) for 24 h and fixed in 3.7% paraformaldehyde. The fixed cells and neurons were immunostained with antibodies against α-tubulin and phosopho-CREB (p-CREB) along with DAPI (nucleus).

[10] = tested on: phosphorylated CREB in mouse embryonic cortical neurons; assay: Nuclear p-CREB immunostaining in cortical neurons (Example 2); type: cell-based; conditions: 1 μM, 24 h
Description: as §3

Compound	average intensity of pCREB in midi-GAGR-treated neurons after inhibitor pre-treatment [1]	fold change in average total neurite length compared to vehicle [6]	neuron death after Aβ42 peptide [7]	neuron death after 4HNE [7]	neuron death after H2O2 [7]	further results
CN([C@@H](Cc1ccc(OS(=O)(=O)c2cccc3cnccc23)cc1)C(=O)N1CCN(c2ccccc2)CC1)S(=O)(=O)c1cccc2cnccc12 [KN-62]	decreased slightly but still statistically significantly					
CS(=O)(=O)c1cccc(CNc2nc(Nc3ccc4c(c3)CCC(=O)N4)ncc2C(F)(F)F)c1 [PF-573228]	did not decrease					
Cc1c[nH]c(/C=C2\C(=O)Nc3ccccc32)c1CCC(=O)O [SU5402]	significantly decreased					percent of dead cells, pre-treatment then 4HNE ([2]; SU5402 4 μM 6 h, then 10 μM 4HNE 24 h): ~80%; percent of dead cells without 4HNE ([2]; SU5402 4 μM, midi-GAGR 1 μM): did not increase
N#CC(=C(/N)Sc1ccccc1N)/C(C#N)=C(\N)Sc1ccccc1N [U0126]	significantly decreased					
[D-Glc(β1→4)D-GlcA(β1→4)D-Glc(β1→4)L-Rha(α1→3]n [LA-GAGR]		~1.6 fold	~10%	10%	~13%	average intensity of nuclear pCREB compared to vehicle [3]: ~2 fold; levels of pCREB by immunoblotting compared to control [4]: significantly increased; Antioxidant capacity, ABTS assay [5]: 15.4 μM Trolox
alginate		did not enhance neuritogenesis	did not decrease	reduced	did not reduce	6-OHDA-induced cell death [8]: did not; increase of the levels of nuclear p-CREB [9]: not significantly increased; increase of the levels of nuclear p-CREB [10]: not significantly increased
